In US20250325543A1, “EGFR TKIs FOR USE IN THE TREATMENT OF NON-SMALL LUNG CANCER” (ASTRAZENECA AB, priority 2020, published 2025):

Legend:
[1] = tested on: patients with advanced mutation-positive EGFR (Ex19del or L858R) NSCLC; conditions: cited from earlier work
[2] = tested on: stage IB-IIIA EGFRm NSCLC patients; assay: ADAURA phase 3 double-blind, randomized, placebo-controlled study of adjuvant AZD9291 after complete tumour resection; type: in vivo, human; conditions: for DFS HR (95% CI) / reduction in the risk of disease recurrence or death: osimertinib vs placebo
Protocol: Adjuvant chemotherapy should have consisted of a platinum based doublet given for a maximum of 4 cycles.
Patients were randomised 1:1, to receive either AZD9291 or placebo. […] Patients were randomised within 10 weeks following complete surgical resection if adjuvant chemotherapy was not administered, within 26 weeks following surgery if adjuvant chemotherapy was administered.
Accounting for patients who are found to have wild type EGFR, sample attrition and 10% screen fail rate for other reasons, it was estimated that approximately 3200 patients would be screened to randomize approximately 700 patients. Approximately 60% of patients were recruited from Asia and 40% from non-Asian countries. The proportion of patients randomized with stage 1B cancer was approximately 30% and the proportion of patients randomized with stage II-IIIA cancer was approximately 70%. Patients were stratified at randomization by stage (IB vs II vs IIIA), mutation type (Ex19Del/L858R either alone or in combination with other EGFR mutations) as confirmed by a central laboratory using a tissue based test, and race (Asian/non-Asian).
Patients undergo regular CT scan (chest and abdomen including liver and adrenal glands) with additional anatomy imaging, as indicated by signs and symptoms of the patient, for disease recurrence. Disease free survival (DFS) shall be measured from the date of randomization until date of disease recurrence or death (from any cause) in the absence of recurrence by investigational site assessment.
Male and female patients aged 18 years and over (patients from Japan/Taiwan aged at least 20 years) with histologically confirmed diagnosis of primary non-squamous non-small cell carcinoma of the lung, with complete surgical resection of the primary tumour, and who were classified post-operatively as stage IB, II or IIIA on the basis of pathologic criteria were eligible for this study (stage IB patients were excluded in Japan). Recruitment of patients with stage IB disease was closed when approximately 210 (30%) had been randomized and recruitment of patients with stage II-IIIA disease was closed when approximately […] (70%) had been randomized. Patients were confirmed to have a tumour that harbours one of the most common EGFR mutations known to be associated with EGFR-TKI sensitivity (Ex19Del; L858R) either alone or in combination with other EGFR mutations as confirmed by a central test.
Treatment with AZD9291 (80 mg once daily) or placebo commenced following randomization. Patients will continue on randomised treatment until recurrence of disease, treatment discontinuation criterion is met or treatment is completed.
AZD9291 (80 mg orally, once daily) or matching placebo, in accordance with the randomization schedule, was administered.
Disease-free survival is the primary endpoint in this study and is defined as the time from the date of randomization until the date of disease recurrence or death from any cause in the absence of disease recurrence. Disease recurrence is defined as evidence of disease recurrence on CT or MRI scan and/or pathological disease on biopsy by investigational site assessment. The primary population is the stage II/IIIA patients.
DFS rate at 2, 3, 4 and 5 years is defined as the proportion of patients alive and disease free at 2, 3, 4 and 5 years, respectively, estimated from Kaplan Meier plots of the primary endpoint of DFS at the time of the primary analysis.
DFS in the subset of patients with stage II-IIIA cancer will be analysed using a log rank test stratified by stage (II, IIIA), mutation type (Ex19Del, L858R either alone or in combination with other EGFR mutations) and race (Asian, Non-Asian) for the generation of the p-value and using the Breslow approach for handling ties.

[3] = patients with CNS metastases on a baseline brain scan, vs standard EGFR-TKIs
[4] = Stage IB/II/IIIA (overall population)
[5] = Stage IB/II/IIIA (overall population), listed as osimertinib
[6] = Stage II/IIIA patient population, immature OS (5% maturity)

## C=CC(=O)Nc1cc(Nc2nccc(-c3cn(C)c4ccccc34)n2)c(OC)cc1N(C)CCN(C)C [Osimertinib, N-(2-{2-dimethylaminoethyl-methylamino}-4-methoxy-5-{[4-(1-methylindol-3-yl)pyrimidin-2-yl]amino}phenyl) prop-2-enamide]
[1]; first-line therapy
  median overall survival: 38.6 months
  median progression free survival (PFS): 18.9 months
[1]; irrespective of known or treated CNS metastases at trial entry
  events of CNS progression, % patients: 6%
[1]; osimertinib vs comparator group
  hazard ratio for death: 0.80
[1]; osimertinib vs erlotinib or gefitinib
  PFS hazard ratio (HR): 0.46
[1]; patients with CNS metastases on a baseline brain scan
  median CNS PFS: not reached
[1]; [3]
  CNS PFS HR: 0.48
  reduction in the risk of CNS progression: 52%
[2]; Adjuvant chemotherapy received
  2 year DFS rate, % (95% CI): 88.3%
[2]; No adjuvant chemotherapy
  2 year DFS rate, % (95% CI): 89.2%
[2]; Stage IB
  2 year DFS rate, % (95% CI): 87 (77, 93) %
  Median DFS, months (95% CI): NR (NC, NC)
  DFS HR (95% CI): 0.50 (0.27, 0.94)
[2]; [4]
  2 year DFS rate, % (95% CI): 88.8%
  DFS HR (95% CI): 0.21 (0.16, 0.28);
[2]; [5]
  2 year DFS rate, % (95% CI): 89%
  DFS HR (95% CI): 0.21
[2]; Stage II
  2 year DFS rate, % (95% CI): 91 (82, 95)^ %
  Median DFS, months (95% CI): NR (NC, NC)
  DFS HR (95% CI): 0.17 (0.08, 0.31)
[2]; Stage II-IIIA
  2 year DFS rate, % (95% CI): 89.5%
  DFS HR (95% CI): 0.17 (0.12, 0.23);
[2]; [6]
  deaths (% of patients): 3%
  deaths (number of patients): 8 deaths
[2]; Stage IIIA
  2 year DFS rate, % (95% CI): 88 (79, 94)^ %
  Median DFS, months (95% CI): 38.8 (38.6, NC)^ months
  DFS HR (95% CI): 0.12 (0.07, 0.20)
[2]; immature OS (5% maturity)
  overall survival (in words): trend towards survival favouring osimertinib
[2]; Stage II-IIIA, listed as osimertinib
  DFS HR (95% CI): 0.17 (0.12, 0.23)
[2]; adjuvant chemotherapy received
  DFS HR (95% CI): 0.17
[2]; no adjuvant chemotherapy
  DFS HR (95% CI): 0.17
[2]; overall population
  reduction in the risk of disease recurrence or death: 79%
[2]; primary population of stage II/IIIA patients
  reduction in the risk of disease recurrence or death: 83%
[2]; regardless of whether patients received prior adjuvant chemotherapy
  improvement in DFS (in words): consistent improvement in DFS
[2]; stage IB/II/IIIA EGFRm NSCLC, adjuvant setting
  improvement in disease free survival (DFS) (in words): statistically significant and clinically meaningful improvement
